One assay deals with PCA reaction. In words: Anti-allergic action: passive cutaneous anaphylaxis test (PCA reaction). The note with it: rat, injected into a vein. The format is in vivo. As for the experimental part:
A rat was immunized with egg-albumin suspended in aluminum hydroxide gel in a conventional manner and a blood letting was carried out to obtain immune serum rich in IgE.
A male rat was anethtized with ether and hairs on back were sheared to intradenally inject by 0.1 ml of the immune serum solution described in Item (1) and diluted to 5-folds, at both sides with a certain distance from a medial line on the back. After 72 hours, a mixed solution of egg albumin (5 mg/kg), 2% Evans blue and a test compound ([L-Leu^17 ]-VIP-Hse or pure native VIP) or disodium cromoglycate was injected into a vein. After 30 minutes from an occasion of PCA reaction, the experimental animal was killed and pealed-off the skin to obtain a piece of the skin dyed with the coloring matter.
The coloring matter was extracted in accordance with the method described by Katayama ["Microbio. Immunol.", Vol. 22, No. 2, pages 89 (1978)] and an amount thereof was measured at 620 nm in wave length to calculate an inhibition of the PCA reaction.

Another assay concerns arterial pressure. In words: Hypotensing action: arterial pressure after injection in femoral artery. The format is in vivo. Particulars: anethtized beagle dog, 0.02-10 μg/kg. The method, then: In a femoral artery of anethtized beagle dog, each of the VIP analogues as Test Samples was injected in a dose of 0.02-10 μg/kg and measured an arterial pressure to prepare a chart showing a relation between the dose and change in blood pressure and check an amount of dose which shall cause a reduction of 15 mmHg in blood pressure.

This is an account of results in patent US5428015A, “Vasoactive intestinal polypeptide analogues and use thereof” (Sana Kagaku Kenkyusho Co., Ltd., priority 1990, dated 1995).

Consider `O=C([O-])c1cc(=O)c2c(OCC(O)COc3cccc4oc(C(=O)[O-])cc(=O)c34)cccc2o1.[Na+].[Na+]` [Disodium cromoglycate], for which the “Inhibition (%) of the PCA reaction” value in the assay with PCA reaction (dose 0.01 mg/kg) is 5%; in the assay on PCA reaction (dose 0.1 mg/kg), 28%; with PCA reaction (dose 1.0 mg/kg), 31%.
Turning to “[L-Leu^17 ]-VIP-Hse-NH(CH2)9 CH3 [[L-Leu^17]-VIP-NH(CH2)9 CH3]”, in the assay on arterial pressure, the “amount of dose causing a reduction of 15 mmHg in blood pressure, relative value (native VIP = 100%)” value came out at 68%.
Turning to `CC[C@H](C)[C@H](NC(=O)[C@H](CO)NC(=O)[C@H](CC(N)=O)NC(=O)[C@H](CC(C)C)NC(=O)[C@H](Cc1ccc(O)cc1)NC(=O)[C@H](CCCCN)NC(=O)[C@H](CCCCN)NC(=O)[C@@H](NC(=O)[C@H](C)NC(=O)[C@H](CCSC)NC(=O)[C@H](CCC(N)=O)NC(=O)[C@H](CCCCN)NC(=O)[C@H](CCCNC(=N)N)NC(=O)[C@H](CC(C)C)NC(=O)[C@H](CCCNC(=N)N)NC(=O)[C@@H](NC(=O)[C@H](Cc1ccc(O)cc1)NC(=O)[C@H](CC(N)=O)NC(=O)[C@H](CC(=O)O)NC(=O)[C@@H](NC(=O)[C@H](Cc1ccccc1)NC(=O)[C@@H](NC(=O)[C@H](C)NC(=O)[C@H](CC(=O)O)NC(=O)[C@H](CO)NC(=O)[C@@H](N)Cc1c[nH]cn1)C(C)C)[C@@H](C)O)[C@@H](C)O)C(C)C)C(=O)N[C@@H](CC(C)C)C(=O)N[C@@H](CC(N)=O)C(N)=O` [Native VIP, vasoactive intestinal polypeptide], the “Inhibition (%) of the PCA reaction” value in the assay with PCA reaction (dose 0.01 mg/kg) came to 23%; with PCA reaction (dose 0.1 mg/kg) it was 72%; in the assay on PCA reaction (dose 1.0 mg/kg), 67%. Also, the “amount of dose causing a reduction of 15 mmHg in blood pressure, relative value (native VIP = 100%)” value in the assay on arterial pressure came out at 100%.
